Earlier results in patent publication US12551470B2, “Metabolism enhancing compositions” (Red Mountain Med Spa, LLC, priority 2022, dated 2026).

Columns and labels:
[1] = compared to the other phytochemicals (11 phytochemicals, Tomer et al., J. Med. Food 2007)
[2] = compared to the other phytochemicals (11 phytochemicals, Tomer et al., J. Med. Food 2007); remark: listed apart in the source

SMILES: O=C(O)CCCC[C@@H]1CCSS1 [α-lipoic acid, (R)-5-(1,2-dithiolan-3-yl)pentanoic acid]
- ORAC values [1]: low
- TOSC values [2]: high
